Measured values as given in US10556875B2, “Bis-diazeniumdiolate compounds as anti-cancer agents” (ARIZONA BOARD OF REGENTS ON BEHALF OF ARIZONA STATE …, priority 2017, dated 2020).
Where two headings read alike, the source gives them in different places.

What was measured:
Assay type in all cases: cell-based, human
[1] = tested on: A549 lung cancer cells; test: In vitro cellular proliferation assay (MTT/MTS)
Experimental: (§1) In Vitro Cellular Proliferation Assay: BT474 breast cancer cells (ATCC® HTB-20, overexpression of HER2), A549 lung cancer cells, leukemia cell CCRF-CEM (ATCC# CCL-119), and leukemia Jurkat cell were cultured at 37° C. in a 5% CO2 atmosphere and grown in Gibco® RPMI 1640 medium supplemented with 10% fetal bovine serum (FBS) and 1% antibiotic-[…] mix antibiotic supplement before use.
(§2) Exponentially growing cells were harvested and plated in 96-well plates at a concentration of 1×10^4 cells/well. After incubation at 37° C. for 24 h, the cells were treated with analogues of JS-K at different concentrations for an additional 24, 48 or 72 h. Then 20 μL of MTT (5 mg/mL) or MTS was added to each well and the plates were incubated at 37° C. for 4 h. The supernatant was discarded for MTT assay, and 100 μL of DMSO was added to each well. For the MTS assay, this step is not necessary. The absorbance was recorded at 490 nm after 15 min. Inhibition of cell growth was obtained by the following formula: Inhibition of cell growth (%)=(ODnegative control−ODtreatment)×100%/(ODnegative control−ODbackground). Data are reported as the mean of three independent experiments, each run in quintuplicate.

[2] = tested on: BT474 breast cancer cells; test: In vitro cellular proliferation assay (MTT/MTS)
Experimental: as §1, §2

[3] = tested on: leukemia Jurkat E6-1 cells; test: In vitro cellular proliferation assay (MTT/MTS)
Experimental: as §1, §2

[4] = tested on: leukemia cell CCRF-CEM; test: In vitro cellular proliferation assay (MTT/MTS)
Experimental: as §1, §2

[5] = tested on: breast cancer cell MDA-MB-231; test: In vitro cellular proliferation assay (MTT/MTS)
[6] = tested on: BT474, MDA-MB-231, A549, CCRF-CEM and Jurkat cancer cells; test: In vitro cellular proliferation assay, comparison across the tested cancer cell panel
Experimental: as §1, §2

[7] = Homo sapiens, A549, read-out: Half maximal inhibitory concentration (IC50)
[8] = Homo sapiens, BT-474, read-out: Half maximal inhibitory concentration (IC50)
[9] = Homo sapiens, Jurkat E6.1, read-out: Half maximal inhibitory concentration (IC50)
[10] = Homo sapiens, CCRF-CEM, read-out: Half maximal inhibitory concentration (IC50)
[11] = Homo sapiens, MDA-MB-231, read-out: Half maximal inhibitory concentration (IC50)

Structure (SMILES) | IC50 [1, 7] [µM] | IC50 [2, 8] [µM] | IC50 [3, 9] [µM] | IC50 [4, 10] [µM] | IC50 [5, 11] [µM] | IC50 ([4]; Homo sapiens, CCRF-CEM, read-out: IC50 against leukemia CEM cells) [µM] | specific activity to human leukemia cells ([6]; among the compounds of the series) | selectivity to leukemia cells versus breast cancer and lung cancer cells ([6]; compared with JS-K) | IC50 fold higher (less cell killing potency) than for JS-K ([6]; other four cancer cells (other than CEM), relative to JS-K) | IC50 ([1]; A549 cells, read-out: Half maximal inhibitory concentration (IC50)) [µM] | IC50 ([2]; BT474 cells, read-out: Half maximal inhibitory concentration (IC50)) [µM] | IC50 ([3]; Jurkat E6-1 cells, read-out: Half maximal inhibitory concentration (IC50)) [µM] | IC50 ([4]; leukemia CEM cells, read-out: IC50 against leukemia CEM cells) [µM] | IC50 ([5]; MDA-MB-231 cells, read-out: Half maximal inhibitory concentration (IC50)) [µM] | inhibitory effect on cellular proliferation ([6]; all tested cancer cells: BT474, MDA-MB-231, A549, CCRF-CEM, Jurkat)
O=[N+]([O-])c1ccc(O/N=[N+](\[O-])N2CCN(CCN3CCN(/[N+]([O-])=N/Oc4ccc([N+](=O)[O-])cc4[N+](=O)[O-])CC3)CC2)c([N+](=O)[O-])c1 [Compound 1, (1Z,1′Z)-1,1′-(ethane-1,2-diylbis(piperazine-4,1-diyl))bis(2-(2,4-dinitrophenoxy)diazene 1-oxide)] | 17.1 ± 1.02 | 10.7 ± 0.97 | 3.71 ± 0.04 | 2.64 ± 0.37 | 17.6 ± 0.08 |  |  |  |  |  |  |  |  |  | 
O=[N+]([O-])c1ccc(O/N=[N+](\[O-])N2CCC(CN3CCN(/N=[N+](\[O-])Oc4ccc([N+](=O)[O-])cc4[N+](=O)[O-])CC3)CC2)c([N+](=O)[O-])c1 [Compound 3, (E)-1-(2,4-dinitrophenoxy)-2-(4-((1-((Z)-2-(2,4-dinitrophenoxy)-1-oxidodiazen-1-yl)piperidin-4-yl)methyl)piperazin-1-yl)diazene 1-oxide] | 11.3 ± 1.61 | 7.06 ± 1.03 | 1.94 ± 0.08 | 0.46 ± 0.02 | 17.9 ± 1.01 | 0.46 | highest specific activity | higher selectivity than JS-K | 1.9-5.4 fold |  |  |  |  |  | 
O=[N+]([O-])c1ccc(O/N=[N+](\[O-])N2CCN(CCCN3CCN(/[N+]([O-])=N/Oc4ccc([N+](=O)[O-])cc4[N+](=O)[O-])CC3)CC2)c([N+](=O)[O-])c1 [Compound 2, (1Z,1′Z)-1,1′-(propane-1,3-diylbis(piperazine-4,1-diyl))bis(2-(2,4-dinitrophenoxy)diazene 1-oxide)] | 18.8 ± 0.21 | 10.8 ± 0.08 | 4.06 ± 0.18 | 3.73 ± 0.15 | > 20 |  |  |  |  |  |  |  |  |  | 
CCOC(=O)N1CCN(/[N+]([O-])=N/Oc2ccc([N+](=O)[O-])cc2[N+](=O)[O-])CC1 [JS-K, O^2-(2,4-dinitrophenyl) 1-[(4-ethoxycarbonyl)piperazin-1-yl]diazen-1-ium-1,2-diolate, reference compound] |  |  |  |  |  |  |  |  |  | 2.11 ± 0.15 | 3.66 ± 0.41 | 0.52 ± 0.02 | 0.29 | 7.93 ± 0.47 | high inhibitory effect
O=[N+]([O-])c1ccc(O/N=[N+](\[O-])N2CCN(CC3CCC(CN4CCN(/[N+]([O-])=N/Oc5ccc([N+](=O)[O-])cc5[N+](=O)[O-])CC4)CC3)CC2)c([N+](=O)[O-])c1 (stereo not drawn) [Compound 4, (1Z,1′Z)-1,1′-((cyclohexane-1,4-diylbis(methylene))bis(piperazine-4,1-diyl))bis(2-(2,4-dinitrophenoxy)diazene 1-oxide)] | 18.5 ± 0.15 | 6.01 ± 0.21 | 3.01 ± 0.22 | 2.54 ± 0.14 | 16.4 ± 0.53 |  |  |  |  |  |  |  |  |  | 
